Test results taken from PMC8305076, “Comprehensive Evaluation of Biological Effects of Pentathiepins on Various Human Cancer Cell Lines and Insights into Their Mode of Action” (International Journal of Molecular Sciences, 2021).
Where two headings read alike, the source gives them in different places.

Key:
[1] = system: panel of 14 human cancer cell lines; test: crystal violet proliferation assay, whole panel; format: cell-based; design: key to Antiproliferative effect: no impact (0); weak impact (+); strong impact (++); settings: for GI50: mean over the cell line panel, normoxia, read-out: GI50 CV, mean per compound; for Antiproliferative effect: summary grade
Experimental: Distinct MTT cell viability and crystal violet cell proliferation assays were performed to assess the cytotoxicity of the compounds 1–6 on 14 human cancer cell lines. In the viability assay, cells with intact mitochondria and thus active dehydrogenases are competent to convert MTT to the corresponding insoluble formazan. The formazan can be photometrically detected after solubilization and allows for indirect conclusions about the viability of the cells as an IC50 value. In the crystal violet assay, cells are stained by the binding of the dye to the chromatin, thus allowing for a quantification of biomass that remains adherent after a treatment in comparison with a control after a specific time. Potency is defined as the growth inhibitory concentration 50% (GI50).
The antiproliferative effect of the pentathiepins on human cancer cell lines was analyzed by crystal violet assay based on the protocol of a previous publication. […] After dissolving in ethanol, the optical density was measured. Here, 1000 cells (250 for LCLC-103H) in 0.1 mL of medium were seeded per well of a 96 well plate and incubated at standard conditions for 24 h prior to treatment to allow for adhesion of the cells. A serial dilution of the test compounds was prepared in medium, covering final concentrations from 10.0 to 0.04 µM and 0.1 mL of the working solution added to each well in triplicate. Additionally, samples for each cell line were seeded and directly fixed after 24 h to measure the cell density at the beginning of treatment (t0). Fixation was performed by replacing medium with 0.1 mL of a solution containing 1% glutaraldehyde in Dulbecco’s buffer (0.2 g/L KCl, 0.1 g/L MgSO4·7 H2O, 1.55 g/L Na2HPO4·7 H2O, 0.2 g/L KH2HPO4, and 8 g/L NaCl in water) for 20 min. Plates were stored in 0.1 mL of Dulbecco’s buffer until further processing. After 96 h of treatment, the same fixation process was applied to the plates containing cells and test compounds. To stain the cells, 0.1 mL of an aqueous solution of crystal violet (0.02%) was added per well for 20 min, then discarded and the plates afterwards rinsed in clear water for 30 min. The dye was extracted in 50 µL of ethanol per well during 2 h of shaking. The plates were read at λ = 570 nm using a SpectraMax 384plus (Molecular Devices, Sunnyvale, CA, USA), and the proliferation of the treatment conditions was calculated in relation to a solvent control sample after subtracting the background value of the T0-plates. The GI50 (half-maximal growth inhibitory concentration) was calculated via nonlinear regression followed by interpolation of the dose–response graphs in Prism 7 (GraphPad, San Diego, CA, USA). […]

pBR322 plasmid DNA = test: plasmid cleavage assay; format: biochemical; design: key to DNA cleavage: no impact (0); weak impact (+); strong impact (++); settings: for DNA cleavage: summary grade; for linearized plasmid (double-strand breaks) / open circular DNA (single-strand breaks): pH 7.1, 20 h, 37 °C
Excerpt: We pursued two different strategies to assess the potential of the pentathiepins to damage DNA: a simple plasmid cleavage assay and the cellular Comet assay. The former is a straightforward method to investigate whether a test compound can cleave DNA in vitro, and if so, whether single and/or double strand breaks are created, while the latter is an ex vivo assay that measures DNA fragmentation in single cells. In the plasmid cleavage assay, a single strand break would relax the supercoiled plasmid (scDNA) and lead to the detection of open circular DNA (ocDNA), whereas a double-strand break would linearize the plasmid (linDNA). An agarose gel electrophoresis enables the discrimination of the distinct plasmid conformations due to their specific electrophoretic mobilities (Figure 11a).
This assay was used to assess the cleaving ability of the pentathiepins in a cell-free setting and on the basis of procedures described in [54]. Plasmids occur in three different conformations with distinct electrophoretic mobilities that can finally be separated visualized via agarose gel electrophoresis. For each condition, 0.3 µg of pBR322 plasmid DNA was incubated with either the pentathiepin or a corresponding amount of the solvent acetonitrile. Incubations were performed in sodium phosphate buffer (50 mM) with or without GSH for 20 h at 37 °C in a water bath. Afterwards, the samples were separated by using an agarose gel (1%) run at 80 V for 2 h. Resulting bands were stained with GelRed® (Sigma-Aldrich, Taufkirchen, Germany),) and imaged and quantified via Gel-Doc EZ Imager and Image Lab (Bio-Rad, Feldkirchen, Germany), respectively. To assess the cleavage ability of the pentathiepins, we incubated the plasmid with either 5 or 25 µM of compound at a fixed concentration of GSH (2 mM). In another experiment, the amount of GSH varied between 1 µM and 10 mM, while the pentathiepin concentration was 5 µM. In contrast to the aforementioned settings where a buffer pH of 7.1 was applied, in a third attempt, the influence of different pH on the cleavage outcome was analyzed by adjusting the buffer pH to 5.1, 6.1, or 8.1 while using fixed concentrations of both test compound and GSH. Another attempt to gain insights into the cleaving mechanism was made by adding either catalase, superoxide dismutase (100 µg/mL each), or both to 5 µM pentathiepin with 2 mM GSH.

DanG = test: cell cycle analysis (PI staining); format: cell-based, human; settings: IC90, 24 and 48 h (Figure 19a)
Experimental: (§1) The potent cytotoxicity and the potential to inhibit the proliferation of cancer cells accompanied by DNA damage effects raised the question as to whether cell cycle progression might be affected as a result of treatment with pentathiepins.
(§2) Cells were harvested by trypsinization, collected in 1.5 mL tubes, and washed twice with PBS by centrifuging for 5 min at 500× g and discarding the supernatant after every step. For fixation, 500 µL of ice-cold ethanol (70%) was added dropwise under vortexing with a subsequent incubation on ice for 30 min. Then, the cells were centrifuged for 10 min at 4000 rpm and 4 °C, the supernatant was removed, and the cells were resuspended in 500 µL of PBS containing 25 µg/mL of PI and 100 µg/mL of RNase. The staining solution was incubated for 30 min, and the cell suspension was measured at λEx/Em = 488/655–730 nm using a MACSquant Analyzer 10 (Miltenyi Biotec, Teterow, Germany).

HAP-1.KO.GPx1 = test: cell cycle analysis (PI staining); format: cell-based, human; settings: IC90, 24 h
Experimental: as §1, §2

HAP-1 = test: cell cycle analysis (PI staining); format: cell-based, human; settings: IC90, 24 h
Experimental: as §1, §2

CCOc1c2c(c3cnc4[nH]c(-c5ccc(OC)cc5)cc4n13)SSSSS2 [Compound 1, 11-Ethoxy-2-(4-methoxyphenyl)-3H-[1,2,3,4,5]pentathiepino[6′,7′:3,4]pyrrolo[1,2-a]pyrrolo[2,3-e]pyrazine]
GI50 ([1]; Homo sapiens): 333 nM | Antiproliferative effect [1]: ++ | influence of buffer pH on plasmid cleavage (pBR322 plasmid DNA; 5 µM, 2 mM GSH, pH 5.1 to 8.1): a trend favoring lower pH for higher cleavage effects was observed but was not proven to be statistically significant | DNA cleavage (pBR322 plasmid DNA): + | cell cycle distribution vs control (DanG): caused no differences from a normal cell cycle | increase of cells in G2/M-phase (HAP-1.KO.GPx1): No such effects were detected | increase of cells in G2/M-phase (HAP-1): No such effects were detected

CCOc1c2c(c3ccc(C(=O)N4CCCCC4)cn13)SSSSS2 [Compound 2, (6-Ethoxy-[1,2,3,4,5]pentathiepino[6,7-a]indolizin-9-yl)(piperidinyl)methanone]
GI50 ([1]; Homo sapiens): 493 nM | Antiproliferative effect [1]: + | linearized plasmid (double-strand breaks) (pBR322 plasmid DNA; 25 µM, 2 mM GSH): about 4% | DNA cleavage (pBR322 plasmid DNA): ++ | decrease of G0/G1-phase cells (DanG): roughly 15% | increase of cells in G2/M-phase (DanG): 6% | increase of cells in sub G1-phase (DanG): 8% | increase of cells in G2/M-phase (HAP-1.KO.GPx1): ≤ 30% | increase of cells in sub G1-phase (HAP-1.KO.GPx1): up to 10% | increase of cells in G2/M-phase (HAP-1): ≤ 30% | increase of cells in sub G1-phase (HAP-1): up to 10%

CCOc1c2c(c3ccc(C(=O)N4CCOCC4)cn13)SSSSS2 [Compound 3, (6-Ethoxy-[1,2,3,4,5]pentathiepino[6,7-a]indolizin-9-yl)(morpholino)methanone]
GI50 ([1]; Homo sapiens): 170 nM | GI50 [1]: 174 nM | Antiproliferative effect [1]: ++ | fraction of damaged DNA (pBR322 plasmid DNA; 5 µM, 2 mM GSH, no enzyme added (CAT/SOD experiment)): about 43% | open circular DNA (pBR322 plasmid DNA; 5 µM, 2 mM GSH, pH 5.1): 45% | open circular DNA (pBR322 plasmid DNA; 5 µM, 2 mM GSH, pH 6.1): 49% | open circular DNA (pBR322 plasmid DNA; 5 µM, 2 mM GSH, pH 8.1): 28% | amount of broken plasmid (pBR322 plasmid DNA; 5 µM, 2 mM GSH, plus 100 µg/mL CAT): 19% | amount of broken plasmid (pBR322 plasmid DNA; 5 µM, 2 mM GSH, plus 100 µg/mL SOD): 29% | amount of broken plasmid (pBR322 plasmid DNA; 5 µM, 2 mM GSH, plus CAT and SOD): 19% | linearized plasmid (double-strand breaks) (pBR322 plasmid DNA; 25 µM, 2 mM GSH): about 4% | open circular DNA (single-strand breaks) (pBR322 plasmid DNA; 25 µM, 2 mM GSH): about 75% | DNA cleavage (pBR322 plasmid DNA): ++ | decrease of G0/G1-phase cells (DanG): roughly 15% | increase of cells in G2/M-phase (DanG): 6% | increase of cells in sub G1-phase (DanG): 8% | increase of cells in G2/M-phase (HAP-1.KO.GPx1): ≤ 30% | increase of cells in sub G1-phase (HAP-1.KO.GPx1): up to 10% | increase of cells in G2/M-phase (HAP-1): ≤ 30% | increase of cells in sub G1-phase (HAP-1): up to 10%

CCOc1c2c(c3ccc(C(=O)N(CC)CC)cn13)SSSSS2 [Compound 4, 6-Ethoxy-N,N’-diethyl-[1,2,3,4,5]pentathiepino[6,7-a]indolizine-9-carboxamide]
GI50 ([1]; Homo sapiens): 322 nM | Antiproliferative effect [1]: ++ | open circular DNA (single-strand breaks) (pBR322 plasmid DNA; 5 µM, 2 mM GSH): roughly 55% | linearized plasmid (double-strand breaks) (pBR322 plasmid DNA; 25 µM, 2 mM GSH): about 4% | open circular DNA (single-strand breaks) (pBR322 plasmid DNA; 25 µM, 2 mM GSH): about 75% | DNA cleavage (pBR322 plasmid DNA): ++ | decrease of G0/G1-phase cells (DanG): roughly 15% | increase of cells in G2/M-phase (DanG): 6% | increase of cells in sub G1-phase (DanG): 8% | increase of cells in G2/M-phase (HAP-1.KO.GPx1): ≤ 30% | increase of cells in sub G1-phase (HAP-1.KO.GPx1): up to 10% | increase of cells in G2/M-phase (HAP-1): ≤ 30% | increase of cells in sub G1-phase (HAP-1): up to 10%

CCOc1c2c(c3ccc(C(=O)N4CCN(C(=O)c5ccc(F)cc5)CC4)cn13)SSSSS2 [Compound 5, (6-Ethoxy-[1,2,3,4,5]pentathiepino[6,7-a]indolizin-9-yl)(4-(4-fluorobenzoyl)piperazinyl)methanone]
GI50 ([1]; Homo sapiens): 267 nM | Antiproliferative effect [1]: ++ | open circular DNA (single-strand breaks) (pBR322 plasmid DNA; 5 µM, 2 mM GSH): roughly 55% | linearized plasmid (double-strand breaks) (pBR322 plasmid DNA; 25 µM, 2 mM GSH): about 4% | open circular DNA (single-strand breaks) (pBR322 plasmid DNA; 25 µM, 2 mM GSH): about 75% | DNA cleavage (pBR322 plasmid DNA): ++ | decrease of G0/G1-phase cells (DanG): roughly 15% | increase of cells in G2/M-phase (DanG): 6% | increase of cells in sub G1-phase (DanG): 8% | increase of cells in G2/M-phase (HAP-1.KO.GPx1): ≤ 30% | increase of cells in sub G1-phase (HAP-1.KO.GPx1): up to 10% | increase of cells in G2/M-phase (HAP-1): ≤ 30% | increase of cells in sub G1-phase (HAP-1): up to 10%

CCOc1c2c(c3ccc(C(=O)N4CCN(S(=O)(=O)c5ccc(C)cc5)CC4)cn13)SSSSS2 [Compound 6, (6-Ethoxy-[1,2,3,4,5]pentathiepino[6,7-a]indolizin-9-yl)(4-tosylpiperazinyl)methanone]
GI50 ([1]; Homo sapiens): 570 nM | GI50 [1]: 671 nM | Antiproliferative effect [1]: + | DNA cleavage (pBR322 plasmid DNA): + | cell cycle distribution vs control (DanG): caused no differences from a normal cell cycle | increase of cells in G2/M-phase (HAP-1.KO.GPx1): No such effects were detected | increase of cells in G2/M-phase (HAP-1): No such effects were detected
